The test system of experiment [1] is NCI-H1299 cells. Nature of the experiment: Cancer cell proliferation inhibition (Cell Counting Kit-8), lung cancer cell line. It counts as cell-based. To be noted: Homo sapiens, NCI-H1299, 264 h, 1000 nM, cultured seven to 11 days; read-out: % inhibition rate NCI-H129 9. The procedure, abridged:
(§1)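 Single-concentration growth test: compound at 1000 nM was applied to cells seeded at 100 to 1,000 per well and cultured seven to 11 days. Proliferation was then quantified with Cell Counting Kit-8, and percent inhibition was taken relative to control wells.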

Experiment [2] concerns SW-13 cells. Nature of the experiment: Cancer cell proliferation inhibition (Cell Counting Kit-8), adrenal cancer cell line. The class given is cell-based. Particulars: Homo sapiens, SW13, 264 h, 1000 nM, cultured seven to 11 days; read-out: % inhibition rate SW-13. The gist of the method:
as §1
Background: Formazan colour is commonly taken as a measure of viable cells.

Experiment [3] deals with EZH1 (Homo sapiens, UniProt Q92800). Nature of the experiment: AlphaLISA enzyme activity inhibition, EZH1. It counts as biochemical. Particulars: for inhibition at 0.005 µM: 5nM test substance; for inhibition at 0.01 µM: 10nM test substance. The procedure, abridged: (§2)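 EZH1 or EZH2 was mixed with compound at 5 nM or 10 nM final in 20 mM Tris pH 8.0, 0.1% BSA, 0.5 mM DTT, then histone H3 peptide and SAM were added. After 2 h reaction, AlphaLISA acceptor and donor beads detected methylation; inhibition rate was calculated against DMSO control.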
Background: Bead proximity is the source of the signal in Alpha formats.

The test system of experiment [4] is MKN-45 cells. Nature of the experiment: Cancer cell proliferation inhibition (Cell Counting Kit-8), gastric cancer cell line. It counts as cell-based. Particulars: Homo sapiens, MKN-45, 264 h, 1000 nM, cultured seven to 11 days; read-out: % inhibition rate MKN -45. The gist of the method: (§3)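 Cells grown in RPMI1640, McCoy's 5a, L-15 or DMEM with 10% FBS, seeded at 100 to 1,000 cells/well and treated with test substance at 1000 nM for 7 to 11 days. Viability read by CCK-8; % inhibition = {1−(test/control)} × 100.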

Experiment [5] relates to G401 cells. Nature of the experiment: Cancer cell proliferation inhibition (Cell Counting Kit-8), rhabdoid tumor cell line. The class given is cell-based. Particulars: Homo sapiens, G-401, 264 h, 1000 nM, cultured seven to 11 days; read-out: % inhibition rate G401. The gist of the method:
as §3

The target in experiment [6] is EZH2 (Homo sapiens, UniProt Q15910). Nature of the experiment: AlphaLISA enzyme activity inhibition, EZH2. Particulars: for inhibition at 0.005 µM: 5nM test substance; for inhibition at 0.01 µM: 10nM test substance. The class given is biochemical. The gist of the method:
as §2

In experiment [7] the test system is Lovo cells. Nature of the experiment: Cancer cell proliferation inhibition (Cell Counting Kit-8), colorectal cancer cell line. It counts as cell-based. Particulars: Homo sapiens, LoVo, 264 h, 1000 nM, cultured seven to 11 days; read-out: % inhibition rate LoVo. The procedure, abridged: as §1
In experiment [8] the test system is MIA-PaCa-2 cells. Nature of the experiment: Cancer cell proliferation inhibition (Cell Counting Kit-8), pancreatic cancer cell line. Particulars: Homo sapiens, MIA PaCa-2, 264 h, 1000 nM, cultured seven to 11 days; read-out: % inhibition rate MIA-Paca2. It counts as cell-based. The procedure, abridged:
as §1

As usually defined, the inhibition is the percentage by which the read-out fell short of the control.

Molecules are shown by their SMILES.

EZH2, sequence (Q15910 whole entry, species assumed): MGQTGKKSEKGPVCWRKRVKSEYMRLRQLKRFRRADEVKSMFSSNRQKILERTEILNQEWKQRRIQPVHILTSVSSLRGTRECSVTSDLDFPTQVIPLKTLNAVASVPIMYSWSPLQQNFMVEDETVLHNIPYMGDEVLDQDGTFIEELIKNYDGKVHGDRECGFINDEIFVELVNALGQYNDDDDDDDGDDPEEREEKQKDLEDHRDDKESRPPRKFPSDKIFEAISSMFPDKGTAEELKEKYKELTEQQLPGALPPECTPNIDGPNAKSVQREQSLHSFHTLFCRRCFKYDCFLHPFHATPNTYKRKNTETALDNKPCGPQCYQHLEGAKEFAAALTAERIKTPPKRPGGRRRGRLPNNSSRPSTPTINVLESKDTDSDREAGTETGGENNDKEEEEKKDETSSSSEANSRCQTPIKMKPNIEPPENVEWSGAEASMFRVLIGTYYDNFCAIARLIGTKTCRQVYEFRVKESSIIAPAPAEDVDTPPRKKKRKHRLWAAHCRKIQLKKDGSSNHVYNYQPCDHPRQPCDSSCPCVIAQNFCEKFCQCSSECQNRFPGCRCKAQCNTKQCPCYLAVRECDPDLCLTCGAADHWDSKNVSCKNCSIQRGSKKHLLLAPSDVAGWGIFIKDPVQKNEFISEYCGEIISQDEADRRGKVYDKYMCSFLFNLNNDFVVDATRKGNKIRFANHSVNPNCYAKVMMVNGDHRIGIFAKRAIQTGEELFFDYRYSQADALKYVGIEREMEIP
EZH2, sequence (O75530 whole entry partner, species assumed): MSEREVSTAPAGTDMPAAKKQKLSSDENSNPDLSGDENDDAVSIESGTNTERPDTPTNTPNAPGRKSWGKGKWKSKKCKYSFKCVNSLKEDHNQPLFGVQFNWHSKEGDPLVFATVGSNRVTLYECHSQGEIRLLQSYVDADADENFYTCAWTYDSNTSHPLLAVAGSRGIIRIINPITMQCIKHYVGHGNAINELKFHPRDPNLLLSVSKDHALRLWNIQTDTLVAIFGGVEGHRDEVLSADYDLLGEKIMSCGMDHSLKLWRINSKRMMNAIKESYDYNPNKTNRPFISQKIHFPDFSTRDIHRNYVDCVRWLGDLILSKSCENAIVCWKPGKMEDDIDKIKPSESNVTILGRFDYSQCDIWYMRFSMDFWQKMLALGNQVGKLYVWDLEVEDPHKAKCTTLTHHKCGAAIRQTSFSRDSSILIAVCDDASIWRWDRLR
EZH2, sequence (Q15022 whole entry partner, species assumed): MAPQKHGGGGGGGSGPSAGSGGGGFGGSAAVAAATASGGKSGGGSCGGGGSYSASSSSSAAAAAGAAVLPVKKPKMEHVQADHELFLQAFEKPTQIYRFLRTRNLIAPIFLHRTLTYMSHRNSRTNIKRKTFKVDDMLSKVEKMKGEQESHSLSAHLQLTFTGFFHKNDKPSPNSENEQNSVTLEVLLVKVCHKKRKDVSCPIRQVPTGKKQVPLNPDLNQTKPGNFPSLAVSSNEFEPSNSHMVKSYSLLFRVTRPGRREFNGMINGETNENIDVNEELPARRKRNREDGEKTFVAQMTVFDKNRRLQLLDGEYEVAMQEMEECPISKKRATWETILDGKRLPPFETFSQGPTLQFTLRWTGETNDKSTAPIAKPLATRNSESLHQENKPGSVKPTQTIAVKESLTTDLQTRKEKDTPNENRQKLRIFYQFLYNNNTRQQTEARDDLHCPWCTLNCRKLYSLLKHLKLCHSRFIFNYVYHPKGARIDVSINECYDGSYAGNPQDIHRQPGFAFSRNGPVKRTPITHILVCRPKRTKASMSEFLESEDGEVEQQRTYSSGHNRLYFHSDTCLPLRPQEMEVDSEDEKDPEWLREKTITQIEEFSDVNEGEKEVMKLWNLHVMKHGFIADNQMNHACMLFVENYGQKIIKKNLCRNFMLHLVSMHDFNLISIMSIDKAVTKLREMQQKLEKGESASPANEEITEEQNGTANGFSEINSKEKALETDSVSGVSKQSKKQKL
EZH1, sequence (Q92800 whole entry, species assumed): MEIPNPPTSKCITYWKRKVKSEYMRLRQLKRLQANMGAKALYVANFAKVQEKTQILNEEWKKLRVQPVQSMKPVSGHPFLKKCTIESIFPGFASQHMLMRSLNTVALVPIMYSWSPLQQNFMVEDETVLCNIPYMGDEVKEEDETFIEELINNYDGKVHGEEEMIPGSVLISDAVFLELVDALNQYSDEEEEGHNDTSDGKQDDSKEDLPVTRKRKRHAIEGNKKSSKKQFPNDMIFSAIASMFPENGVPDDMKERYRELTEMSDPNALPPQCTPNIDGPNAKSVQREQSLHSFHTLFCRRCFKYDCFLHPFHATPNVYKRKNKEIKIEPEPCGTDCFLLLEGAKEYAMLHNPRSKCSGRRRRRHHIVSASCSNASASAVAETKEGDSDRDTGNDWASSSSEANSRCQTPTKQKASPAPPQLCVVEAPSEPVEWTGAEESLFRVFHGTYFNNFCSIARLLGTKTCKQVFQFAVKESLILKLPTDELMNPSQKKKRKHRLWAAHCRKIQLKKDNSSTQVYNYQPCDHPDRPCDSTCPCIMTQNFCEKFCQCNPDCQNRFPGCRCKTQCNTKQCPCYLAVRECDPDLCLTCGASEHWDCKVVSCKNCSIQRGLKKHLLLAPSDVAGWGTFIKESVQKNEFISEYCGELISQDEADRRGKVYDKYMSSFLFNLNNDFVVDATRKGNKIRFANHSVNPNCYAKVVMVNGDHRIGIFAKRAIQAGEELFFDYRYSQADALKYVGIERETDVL
EZH1, sequence (O75530 whole entry partner, species assumed): as the sequence (O75530 whole entry partner, species assumed) above
EZH1, sequence (Q15022 whole entry partner, species assumed): as the sequence (Q15022 whole entry partner, species assumed) above

Consider `CSc1cc(C)[nH]c(=O)c1CNC(=O)c1cc(-c2ccc(N3C[C@@H](C)O[C@@H](C)C3)nc2)c2c(c1C)OC(C)([C@H]1CC[C@H](N(C)CC(F)F)CC1)O2` (stereo partly shown) [Compound 109], for which the inhibition at 1 µM was not above 30% in experiment [1]; 30 to 70% in experiment [2]; 30 to 70% in experiment [4]; not below 70% in experiment [5]; not below 70% in experiment [7]; not above 30% in experiment [8]. Also, the inhibition at 0.005 µM in experiment [3] is 22%; in experiment [6], 52.4%. Further, the inhibition at 0.01 µM is 35.2% in experiment [3] and 91.6% in experiment [6].
As for `CSc1cc(C)[nH]c(=O)c1CNC(=O)c1cc(-c2ccc(N3C[C@@H](C)O[C@@H](C)C3)nc2)c2c(c1C)OC(C)([C@H]1CC[C@H](N(C)C(C)C)CC1)O2` (stereo partly drawn) [Compound 110, 7-(6-((2S,6R)-2,6-dimethylmorpholino)pyridin-3-yl)-2-(trans-4-(isopropyl(methyl)amino)cyclohexyl)-2,4-dimethyl-N-((6-methyl-4-(methylthio)-2-oxo-1,2-dihydropyridin-3-yl)methyl)benzo[d][1,3]dioxole-5-carboxamide], the inhibition at 1 µM is not above 30% in experiment [1]; 30 to 70% in experiment [2]; not above 30% in experiment [4]; not below 70% in experiment [5]; not below 70% in experiment [7]; not above 30% in experiment [8]. Further, the inhibition at 0.005 µM in experiment [3] was found to be 52%; in experiment [6], 99.8%. The inhibition at 0.01 µM came out at 91.9% in experiment [3] and 100% in experiment [6].
Turning to `CCN(C)[C@H]1CC[C@H](C2(C)Oc3c(-c4ccc(N5C[C@@H](C)O[C@@H](C)C5)nc4)cc(C(=O)NCc4c(SC)cc(C)[nH]c4=O)c(C)c3O2)CC1` (stereo partly drawn) [Compound 111, 7-(6-((2S,6R)-2,6-dimethylmorpholino)pyridin-3-yl)-2-(trans-4-(ethyl(methyl)amino)cyclohexyl)-2,4-dimethyl-N-((6-methyl-4-(methylthio)-2-oxo-1,2-dihydropyridin-3-yl)methyl)benzo[d][1,3]dioxole-5-carboxamide], the inhibition at 1 µM is not above 30% in experiment [1]; 30 to 70% in experiment [2]; not above 30% in experiment [4]; not below 70% in experiment [5]; not below 70% in experiment [7]; not above 30% in experiment [8]. The inhibition at 0.005 µM was determined as 28.1% in experiment [3] and 86.7% in experiment [6]. Also, the values for the inhibition at 0.01 µM in experiment [3] and in experiment [6] were 62.1% and 100%, respectively.
With `CSc1cc(C)[nH]c(=O)c1CNC(=O)c1cc(-c2ccc(N3C[C@@H](C)O[C@@H](C)C3)nc2)c2c(c1C)OC(C)([C@H]1CC[C@H](N(C)CCc3ccccc3)CC1)O2` (stereo partly drawn) [Compound 112, 7-(6-((2S,6R)-2,6-dimethylmorpholino)pyridin-3-yl)-2,4-dimethyl-2-(trans-4-(methyl(phenethyl)amino)cyclohexyl)-N-((6-methyl-4-(methylthio)-2-oxo-1,2-dihydropyridin-3-yl)methyl)benzo[d][1,3]dioxole-5-carboxamide], the inhibition at 1 µM in experiment [1] was not above 30%; in experiment [2], 30 to 70%; in experiment [4] it was 30 to 70%; in experiment [5], not below 70%; in experiment [7] it was not below 70%; in experiment [8], not above 30%. Besides, the inhibition at 0.005 µM came out at 24.3% in experiment [3] and 58.5% in experiment [6]. Besides, the inhibition at 0.01 µM in experiment [3] is 40.7%; in experiment [6], 97%.
Take `CSc1cc(C)[nH]c(=O)c1CNC(=O)c1cc(-c2ccc(N3C[C@@H](C)O[C@@H](C)C3)nc2)c2c(c1C)OC(C)([C@H]1CC[C@H](N(C)CCCC(F)(F)F)CC1)O2` (stereo partly shown) [Compound 113]: the inhibition at 1 µM was not above 30% in experiment [1]; 30 to 70% in experiment [2]; not above 30% in experiment [4]; not below 70% in experiment [5]; not below 70% in experiment [7]; not above 30% in experiment [8]. The inhibition at 0.005 µM in experiment [3] stood at 32.5%; in experiment [6], 96.7%. The figures for the inhibition at 0.01 µM in experiment [3] and in experiment [6] were 68.8% and 100%, respectively.
Regarding `CSc1cc(C)[nH]c(=O)c1CNC(=O)c1cc(-c2ccc(N3C[C@@H](C)O[C@@H](C)C3)nc2)c2c(c1C)OC(C)([C@H]1CC[C@H](N(C)C3CCCCC3)CC1)O2` (stereo partly drawn) [Compound 114, 2-(trans-4-(cyclohexyl(methyl)amino)cyclohexyl)-7-(6-((2S,6R)-2,6-dimethylmorpholino)pyridin-3-yl)-2,4-dimethyl-N-((6-methyl-4-(methylthio)-2-oxo-1,2-dihydropyridin-3-yl)methyl)benzo[d][1,3]dioxole-5-carboxamide], the inhibition at 1 µM in experiment [1] was not above 30%; in experiment [2], 30 to 70%; in experiment [4] it was not above 30%; in experiment [5] it was not below 70%; in experiment [7] it was not below 70%; in experiment [8], not above 30%. Further, the inhibition at 0.005 µM in experiment [3] was 28.6%; in experiment [6], 45.8%. For the same molecule, the inhibition at 0.01 µM in experiment [3] was 38.2%; in experiment [6], 91.7%.
On to `CSc1cc(C)[nH]c(=O)c1CNC(=O)c1cc(-c2ccc(N3C[C@@H](C)O[C@@H](C)C3)nc2)c2c(c1C)OC(C)([C@H]1CC[C@H](N(C)C(=O)C(F)(F)F)CC1)O2` (stereo partly drawn) [Compound 115, 7-(6-((2S,6R)-2,6-dimethylmorpholino)pyridin-3-yl)-2,4-dimethyl-N-((6-methyl-4-(methylthio)-2-oxo-1,2-dihydropyridin-3-yl)methyl)-2-(trans-4-(2,2,2-trifluoro-N-methylacetamido)cyclohexyl)benzo[d][1,3]dioxole-5-carboxamide], for which the inhibition at 1 µM is not above 30% in experiment [1]; not above 30% in experiment [2]; not above 30% in experiment [4]; 30 to 70% in experiment [5]; not below 70% in experiment [7]; not above 30% in experiment [8]. The inhibition at 0.005 µM in experiment [3] stood at 6.1%; in experiment [6], 37.3%. The inhibition at 0.01 µM in experiment [3] was 9.6%; in experiment [6], 85.8%.

Values taken from patent EP4740948A1 (Dong Wha Pharm. Co., Ltd., priority 2023, dated 2025).
